Experimental findings from patent US8431704B2, “Quinoline or isoquinoline substituted P2X7 antagonists” (Janssen Pharmaceutica NV, priority 2008, dated 2013) are described below.

This assay addresses T1, hP2X7 (Homo sapiens, UniProt Q99572).
T1 construct: expressed in transfected cells; host or cells: 1321N1 astrocytoma cells
T1 sequence (Q99572 1-595): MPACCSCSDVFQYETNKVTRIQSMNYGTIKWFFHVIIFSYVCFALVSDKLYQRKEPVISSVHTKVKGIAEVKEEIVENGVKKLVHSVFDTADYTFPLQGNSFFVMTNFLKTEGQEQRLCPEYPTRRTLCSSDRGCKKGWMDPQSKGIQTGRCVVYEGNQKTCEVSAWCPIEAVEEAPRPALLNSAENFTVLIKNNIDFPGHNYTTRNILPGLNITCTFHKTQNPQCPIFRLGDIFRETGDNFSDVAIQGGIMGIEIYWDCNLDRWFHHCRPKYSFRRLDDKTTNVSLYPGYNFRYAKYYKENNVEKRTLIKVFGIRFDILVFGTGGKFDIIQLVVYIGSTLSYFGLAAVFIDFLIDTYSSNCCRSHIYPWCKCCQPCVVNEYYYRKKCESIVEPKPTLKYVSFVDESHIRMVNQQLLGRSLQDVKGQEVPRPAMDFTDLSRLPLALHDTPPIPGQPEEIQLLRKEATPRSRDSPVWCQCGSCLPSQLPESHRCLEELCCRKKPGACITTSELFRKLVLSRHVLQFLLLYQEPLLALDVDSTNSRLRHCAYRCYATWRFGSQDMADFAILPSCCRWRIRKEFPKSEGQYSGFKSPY
The assay can be described thus: P2X7 antagonism: ligand-induced Ca2+ flux in 1321N1 astrocytoma cells overexpressing hP2X7. The assay is classed as cell-based. The note with it: pIC50 = -log(IC50), read-out: hP2RX7pIC50 (mean pIC50 values) (converted). The procedure: Extracellular binding of ATP to P2X7 that is expressed in the cell-membrane opens the ligand gated cation channel and allows Ca^2+ entry into the cell. This ligand-induced Ca^2+ flux was measured in 1321N1 astrocytoma cells overexpressing hP2X7 for the compounds of the present invention.
The calcium assay kit used (Molecular Devices, R8090), provides a Ca^2+ sensitive dye together with a quenching dye. However, no specifications are given by the manufacturer. The kit most likely consists of a membrane permeable acetoxymethyl (AM) ester of a fluorescent Ca^2+ indicator, such as fluo-4 or fluo-3. Upon cellular uptake, the AM esters get cleaved by esterases, liberating the Ca^2+-sensitive dye which can then bind calcium. The dyes have an absorption spectrum compatible with excitation at 488 nm by argon laser sources and a large fluorescence intensity increase in response to Ca^2+ binding without an accompanying spectral shift. Emission wavelength is in the range of 510-560 nm.
The fluorescence, and thus the changes in intracellular [Ca^2+] in the 1321N1 cells was monitored in time before and after addition of the agonist. The effect of the antagonist was measured as % control and as IC50.

For the compound `CN(C)c1ncc(C(CNC(=O)c2cccc3nc(N4CCCC4)ccc23)N2CCOCC2)cn1` (centres unmarked) [Compound 218], the IC50 was 316 nM.
For `CCOc1ncc(C(CNC(=O)c2cccc3nc(N4CCOCC4)ccc23)N2CCOCC2)cn1` (centres unmarked) [Compound 228], the IC50 is 51.3 nM.
Turning to `O=C(NCC(c1cnc(N2CCOCC2)nc1)N1CCC(F)(F)CC1)c1cccc2nc(N3CCCC3)ccc12` (centres unmarked) [Compound 224], the IC50 is 115 nM.
Consider `CC(C)c1ncc(C(CNC(=O)c2cccc3nc(N4CCCC4)ccc23)N2CCC(F)(F)CC2)cn1` (centres unmarked) [Compound 308], for which the IC50 is 49 nM.
To `CN(C)c1ncc(C(CNC(=O)c2cccc3nc(NCC4CC4)ccc23)N2CCOCC2)cn1` (centres unmarked) [Compound 245] belongs 170 nM.
`CN(C)c1ncc(C(CNC(=O)c2cccc3nc(N4CCOCC4)ccc23)N2CCC(F)(F)CC2)cn1` (centres unmarked) [Compound 188]: the IC50 is 69.2 nM.
On to `COc1ncc(C(CNC(=O)c2cccc3nc(NC4CC4)ccc23)N2CCC(F)(F)CC2)cn1` (centres unmarked) [Compound 192], for which the IC50 is 55 nM.
For the compound `CC1CN(C(CNC(=O)c2cccc3ncccc23)c2cnc(C(F)(F)F)nc2)CCO1` (centres unmarked) [Compound 72], the IC50 was 302 nM.
In the case of `CCOc1ncc(C(CNC(=O)c2cccc3nc(NCC4CC4)ccc23)N2CCC(F)(F)CC2)cn1` (centres unmarked) [Compound 257], the IC50 is 26.3 nM.
Consider `O=C(NCC(c1cnc(C(F)(F)F)nc1)N1CCC(F)(F)CC1)c1cccc2nc(N3CCC(O)C3)ccc12` (centres unmarked) [Compound 56], for which the IC50 was 49 nM.
In the case of `CCC1CN(c2ccc3c(C(=O)NCC(c4cnc(C(F)(F)F)nc4)N4CCOCC4)cccc3n2)CCN1` (centres unmarked) [Compound 274], the IC50 is 145 nM.
On to `O=C(NCC(c1cnc(N2CCOCC2)nc1)N1CCC(F)(F)CC1)c1cccc2nc(N3CCOCC3)ccc12` (centres unmarked) [Compound 269], for which the IC50 was 229 nM.
To `CC(C)Oc1ncc(C(CNC(=O)c2cccc3nc(N4CCN(C(C)C)CC4)ccc23)N2CCC(F)(F)CC2)cn1` (centres unmarked) [Compound 306] belongs 46.8 nM; to `O=C(NCC(c1cnc(OCC2CC2)nc1)N1CCC(F)(F)CC1)c1cccc2nc(N3CCOCC3)ccc12` (centres unmarked) [Compound 246], 32.4 nM; to `O=C(NCC(c1cnc(NC2CC2)nc1)N1CCC(F)(F)CC1)c1cccc2nc(N3CCOCC3)ccc12` (centres unmarked) [Compound 189], 110 nM.
Regarding `COc1ncc(C(CNC(=O)c2cccc3nc(N4CCCC4)ccc23)N2CCC(F)(F)CC2)cn1` (centres unmarked) [Compound 286], the IC50 is 38 nM.
In the case of `CC(=O)N1CCN(c2ncc(C(CNC(=O)c3cccc4nc(NCC5CC5)ccc34)N3CCC(F)(F)CC3)cn2)CC1` (centres unmarked) [Compound 240], the IC50 is 57.5 nM.
Consider `O=C(NCC(c1cnc(-c2ccccc2)nc1)N1CCC(F)(F)CC1)c1cccc2nc(NC3CC3)ccc12` (centres unmarked) [Compound 193], for which the IC50 is 61.7 nM.
Take `O=C(NCC(c1cnc(C(F)(F)F)nc1)N1CCOCC1)c1cccc2nc(N3CCN(CCO)CC3)ccc12` (centres unmarked) [Compound 197]: the IC50 is 120 nM.
Take `Nc1ncc(C(CNC(=O)c2cccc3nc(NCC4CC4)ccc23)N2CCC(F)(F)CC2)cn1` (centres unmarked) [Compound 267]: the IC50 is 115 nM.
To `O=C(NC[C@H](c1cnc(C(F)(F)F)nc1)N1CCOCC1)c1cccc2nc(NC3CC3)ccc12` (single isomer, unassigned) [Compound 174] belongs 66.1 nM.
With `CC(C)c1ncc(C(CNC(=O)c2cccc3nc(NC4CC4)ccc23)N2CCOCC2)cn1` (centres unmarked) [Compound 231], the IC50 is 115 nM.
To `Cc1ncc(C(CNC(=O)c2cccc3nc(N4CCCCCC4)ccc23)N2CCOCC2)cn1` (centres unmarked) [Compound 119] belongs 89.1 nM.
`O=C(NCC(c1ccc(Br)nc1)N1CCC(F)(F)CC1)c1cccc2ncccc12` (centres unmarked) [Compound 2]: the IC50 was 21.4 nM.
With `CN(C)c1ncc(C(CNC(=O)c2cccc3nc(N4CCOCC4)ccc23)N2CCOCC2)cn1` (centres unmarked) [Compound 232], the IC50 is 170 nM.
As for `CC(C)Oc1ncc(C(CNC(=O)c2cccc3nc(N4CCN(C(C)C)CC4)ccc23)N2CCOCC2)cn1` (centres unmarked) [Compound 289], the IC50 was 64.6 nM.
